{
  "source": "ChEMBL document CHEMBL4616686",
  "about": "“PROTAC Compounds Targeting α-Synuclein Protein for Treating Neurogenerative Disorders: Alzheimer's and Parkinson's Diseases” (ACS Med Chem Lett, 2020)",
  "data": [
    {"species": "Homo sapiens", "test": "Protac activity at E3 ubiquitin ligase/alpha-syn expressed in human HEK293/TREx A53T cells assessed as alpha-synuclein degradation measured as amount of protein remaining at 1 uM by ELISA relative to control", "format": "cell-based", "units": {"Activity": "%"}, "values": [
      {"smiles": "CNc1ccc(-c2nc3ccc(OCCOCCOCCOCCOCCOCC(=O)N[C@H](C(=O)N4C[C@H](O)C[C@H]4C(=O)N[C@@H](C)c4ccc(-c5scnc5C)cc4)C(C)(C)C)cc3s2)cc1", "Activity": "< 35"},
      {"smiles": "Cc1ncsc1-c1ccc([C@H](C)NC(=O)[C@@H]2C[C@@H](O)CN2C(=O)[C@@H](NC(=O)COCCOCCOc2ccc(CN3C(=O)/C(=C/C=C/c4ccc([N+](=O)[O-])cc4)c4ccccc43)cc2)C(C)(C)C)cc1", "Activity": "35 to 70"},
      {"smiles": "CNc1ccc(-c2nc3ccc(OCCOCCOCCOCCOCCOCCOCC(=O)N[C@H](C(=O)N4C[C@H](O)C[C@H]4C(=O)N[C@@H](C)c4ccc(-c5scnc5C)cc4)C(C)(C)C)cc3s2)cc1", "Activity": "< 35"},
      {"smiles": "O=C1CCC(N2C(=O)c3ccc(N4CCN(CCCO[C@H]5C[C@H](Oc6ccc7c(c6)Sc6cc([N+](=O)[O-])ccc6N7)C5)CC4)cc3C2=O)C(=O)N1", "note": "(stereo partly specified)", "Activity": "35 to 70"},
      {"smiles": "CNc1ccc(-c2nc3ccc(OCCOCCOCC(=O)N[C@H](C(=O)N4C[C@H](O)C[C@H]4C(=O)N[C@@H](C)c4ccc(-c5scnc5C)cc4)C(C)(C)C)cc3s2)cc1", "Activity": "< 35"},
      {"smiles": "Cc1ncsc1-c1ccc([C@H](C)NC(=O)[C@@H]2C[C@@H](O)CN2C(=O)[C@@H](NC(=O)CN2CCN(CCN3CCC(O[C@H]4C[C@H](Oc5ccc6c(c5)Sc5cc([N+](=O)[O-])ccc5N6)C4)CC3)CC2)C(C)(C)C)cc1", "Activity": "< 35"}
    ]}
  ]
}
